What was measured:
NCI-H1299 cells = assay: CCK-8 assay, NCI-H1299 cells; format: cell-based, human; settings: CCK-8, 48 h, mean ± SD, n = 3
Protocol: (§1) Next, cell viability was determined according to the instructions of the CCK-8 assay. Then, 10 μL CCK-8 solution was added to each well of the plate and incubated for 1–4 h in the incubator. […] The percentage of viable cells was measured using the following formula where three independent experiments were performed: [(A450sample − A450blank)/(A450control − A450blank)] × 100%.

A549 cells = assay: CCK-8 assay, A549 cells; format: cell-based; settings: CCK-8, 48 h, mean ± SD, n = 3
Protocol: as §1

NCI-H1437 cells = assay: CCK-8 assay, NCI-H1437 cells; format: cell-based; settings: CCK-8, 48 h, mean ± SD, n = 3
Protocol: as §1

IDO1 = settings: read-out: IDO1 inhibitory activity IC50; cited from earlier work

IC50 (NCI-H1299 cells; Homo sapiens, NCI-H1299) [µM] | IC50 (A549 cells; Homo sapiens, A549) [µM] | IC50 (NCI-H1437 cells; Homo sapiens, NCI-H1437) [µM] | melting point [°C] | IC50 (NCI-H1299 cells) [µM] | IC50 (A549 cells) [µM] | IC50 (NCI-H1437 cells) [µM] | Molecule | IC50 (IDO1) [µM]
4.79 ± 0.13 | 2.39 ± 0.3 | 2.53 ± 0.11 |  |  |  |  | COc1cc2ncnc(Nc3cccc(-c4cn(Cc5cc(Br)cc(Br)c5)nn4)c3)c2cc1OCCCN1CCOCC1 [Compound 4m, N-(3-(1-(3,5-Dibromobenzyl)-1H-1,2,3-triazol-4-yl)phenyl)-7-methoxy-6-(3-morpholinopropoxy)quinazolin-4-amine] | 
11.9 ± 0.32 | 8.62 ± 0.76 | 11.2 ± 0.95 | 175 to 176 |  |  |  | COc1cc2ncnc(Nc3cccc(-c4cn(-c5ccccc5Br)nn4)c3)c2cc1OCCCN1CCOCC1 [Compound 4e, N-(3-(1-(2-Bromophenyl)-1H-1,2,3-triazol-4-yl)phenyl)-7-methoxy-6-(3-morpholinopropoxy)quinazolin-4-amine] | 
5.43 ± 0.24 | 7.53 ± 0.66 | 2.23 ± 0.26 | 167 to 168 |  |  |  | COc1cc2ncnc(Nc3cccc(-c4cn(Cc5ccccc5C#N)nn4)c3)c2cc1OCCCN1CCOCC1 [Compound 4l, 2-((4-(3-((7-Methoxy-6-(3-morpholinopropoxy)quinazolin-4-yl)amino)phenyl)-1H-1,2,3-triazol-1-yl)methyl)benzonitrile] | 
13.3 ± 0.52 | 13.7 ± 0.71 | 9.27 ± 0.4 | 175 to 176 |  |  |  | COc1cc2ncnc(Nc3cccc(-c4cn(-c5ccc([N+](=O)[O-])c(C)c5)nn4)c3)c2cc1OCCCN1CCOCC1 [Compound 4f, 7-Methoxy-N-(3-(1-(3-methyl-4-nitrophenyl)-1H-1,2,3-triazol-4-yl)phenyl)-6-(3-morpholinopropoxy)quinazolin-4-amine] | 
5.91 ± 0.44 | 10.4 ± 0.82 | 5.79 ± 0.88 | 168 to 169 |  |  |  | COc1cc2ncnc(Nc3cccc(-c4cn(Cc5ccc(C)cc5)nn4)c3)c2cc1OCCCN1CCOCC1 [Compound 4n, 7-methoxy-N-(3-(1-(4-methylbenzyl)-1H-1,2,3-triazol-4-yl)phenyl)-6-(3-morpholinopropoxy)quinazolin-4-amine] | 
7.59 ± 0.19 | 6.81 ± 0.33 | 2.05 ± 0.03 | 192 to 193 |  |  |  | COc1cc2ncnc(Nc3cccc(-c4cn(Cc5ccc(F)c(Cl)c5)nn4)c3)c2cc1OCCCN1CCOCC1 [Compound 4a, N-(3-(1-(3-Chloro-4-fluorobenzyl)-1H-1,2,3-triazol-4-yl)phenyl)-7-methoxy-6-(3-morpholinopropoxy)quinazolin-4-amine] | 
 |  |  |  |  |  |  | Clc1ccc(Nc2cnn[nH]2)cc1 [Vertex-AT] | 0.023
7.69 ± 0.11 | 9.81 ± 0.34 | 3.09 ± 0.13 | 167 to 168 |  |  |  | COc1cc2ncnc(Nc3cccc(-c4cn(-c5ccccc5Cl)nn4)c3)c2cc1OCCCN1CCOCC1 [Compound 4h, N-(3-(1-(2-Chlorophenyl)-1H-1,2,3-triazol-4-yl)phenyl)-7-methoxy-6-(3-morpholinopropoxy)quinazolin-4-amine] | 
9.35 ± 0.31 | 13 ± 0.29 | 4.77 ± 0.32 |  |  |  |  | COc1cc2ncnc(Nc3cccc(-c4cn(-c5cccc(F)c5)nn4)c3)c2cc1OCCCN1CCOCC1 [Compound 4i, N-(3-(1-(3-Fluorophenyl)-1H-1,2,3-triazol-4-yl)phenyl)-7-methoxy-6-(3-morpholinopropoxy)quinazolin-4-amine] | 
7.15 ± 0.12 | 8.95 ± 0.99 | 5.95 ± 0.72 | 177 to 178 |  |  |  | COc1cc2ncnc(Nc3cccc(-c4cn(Cc5ccc(Br)cc5)nn4)c3)c2cc1OCCCN1CCOCC1 [Compound 4k, N-(3-(1-(4-Bromobenzyl)-1H-1,2,3-triazol-4-yl)phenyl)-7-methoxy-6-(3-morpholinopropoxy)quinazolin-4-amine] | 
 |  |  |  |  |  |  | COCCOc1cc2ncnc(Nc3cccc(-c4cn(Cc5ccccc5Br)nn4)c3)c2cc1OCCOC [compound e] | 0.32 ± 0.07
 |  |  |  |  |  |  | Oc1ccc(Cl)cc1-c1cnn[nH]1 [MMG-0358] | 0.082
11.4 ± 0.97 | 9.04 ± 0.41 | 6.41 ± 0.54 | 162 to 163 |  |  |  | COc1cc2ncnc(Nc3cccc(-c4cn(-c5ccc(Cl)cc5)nn4)c3)c2cc1OCCCN1CCOCC1 [Compound 4d, N-(3-(1-(4-Chlorophenyl)-1H-1,2,3-triazol-4-yl)phenyl)-7-methoxy-6-(3-morpholinopropoxy)quinazolin-4-amine] | 
12 ± 0.33 | 11.4 ± 0.89 | 6.6 ± 0.07 | 187 to 188 |  |  |  | COc1cc2ncnc(Nc3cccc(-c4cn(-c5cccc6c5C(=O)N(C5CCC(=O)NC5=O)C6=O)nn4)c3)c2cc1OCCCN1CCOCC1 (stereo not drawn) [Compound 4j, 2-(2,6-Dioxopiperidin-3-yl)-4-(4-(3-((7-methoxy-6-(3-morpholinopropoxy)quinazolin-4-yl)amino)phenyl)-1H-1,2,3-triazol-1-yl)isoindoline-1,3-dione] | 
 |  |  |  | 6.02 ± 0.12 | 4.65 ± 0.08 | 2.15 ± 0.1 | 7-Methoxy-N-(3-(1-(2-methyl-3-nitrophenyl)-1H-1,2,3-triazol-4-yl)phenyl)-6-(3-morpholinopropoxy)quinazolin-4-amine [Compound 4g] | 
